For series [1], the system named is colon cancer, CS263, 1#. Nature of the series: Patients primary tumor tissue subcutaneous model (Day 35 after treatment). Format: in vivo, nude mice. The note with it: HuCTB006 10 mg/kg i.v. QW × 4w. The text has this: Fresh primary tumor tissues from patients were implanted in NOD/SCID mice's flank, which developed into a primary tumor, which was then transferred to the nude mice's flank to allow the tumor reaching an exponential growth phase, and the tumor was named 1# tumor, and so on. When the tumor volume and number reached passage requirements, they were implanted into the right flank of nude mice. When the tumors' average volumes reached 100-200 mm^3, the mice were grouped.
The bodyweight and major/minor axis of mice were measured twice a week, and Tumor Growth Inhibition (TGI) and tumor volume were calculated same as in 5.1.5. In addition, to evaluate the synergetic effect of drug combination in tumor growth, Jin Zhengjun Q value judgment method was used with the follow formula: Q=Ea+b/(Ea+Eb−Ea×Eb). Ea+b is the inhibition ratio of drug combination, Ea and Eb are the inhibition ratio of each of drug treatment when it is administered alone. […] The animals were monitored, and when the experiments were concluded, mice were sacrificed and tumors were extracted and weighted. All the animal experiments confer to the regulations of animal's welfare and the management of experimental animal usage.
Tumor volumes were represented with average±standard error. Data analysis was done using Spss16.0, One-Way ANOVA, LSD (homogeneity of variance) or Dunnett T3 (non-homogeneity of variance). […] P<0.05 represents significant difference.

In series [2] the test system is MDA-MB-453. In words: In vitro cytotoxic sensitivity of CTB006. Type of series: cell-based, human. The note with it: MDA-MB-453, Breast cancer.
Series [3] addresses T1, DcR1-His (recombinant human TRAIL R3/TNFRSF10C) (Homo sapiens, UniProt O14798).
T1 construct: His; purchased Novoprotein Science
T1 sequence (O14798 26-236): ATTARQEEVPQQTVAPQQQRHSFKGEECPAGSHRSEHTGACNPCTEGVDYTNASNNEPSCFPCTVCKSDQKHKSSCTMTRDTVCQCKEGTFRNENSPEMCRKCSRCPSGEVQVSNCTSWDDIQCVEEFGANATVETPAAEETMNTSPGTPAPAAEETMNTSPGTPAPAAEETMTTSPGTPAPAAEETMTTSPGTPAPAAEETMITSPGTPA
Nature of the series: Binding specificity by chemiluminescent enzyme immunoassay (CLEIA). Particulars: antibody 200, 40 and 8 ng/mL; 1 hour, 37° C. As for the experimental part: (§1) The binding specificity of HuCTB006 was evaluated by chemiluminescent enzyme immunoassay (CLEIA).
(§2) HuCTB006 was diluted into 200, 40 and 8 ng/mL and then added to the wells. After 1 hour incubation in 37° C., the plate was washed. The binding of HuCTB006 with immobilized antigens was detected with HRP labeled secondary antibody and a substrate solution.

Series [4] deals with T2, OPG-His (recombinant human osteroprotegerin/TNFRSF11B) (Homo sapiens, UniProt O00300).
T2 construct: His; purchased Wuxi Pharmatech Co. Ltd
T2 sequence (O00300 22-401): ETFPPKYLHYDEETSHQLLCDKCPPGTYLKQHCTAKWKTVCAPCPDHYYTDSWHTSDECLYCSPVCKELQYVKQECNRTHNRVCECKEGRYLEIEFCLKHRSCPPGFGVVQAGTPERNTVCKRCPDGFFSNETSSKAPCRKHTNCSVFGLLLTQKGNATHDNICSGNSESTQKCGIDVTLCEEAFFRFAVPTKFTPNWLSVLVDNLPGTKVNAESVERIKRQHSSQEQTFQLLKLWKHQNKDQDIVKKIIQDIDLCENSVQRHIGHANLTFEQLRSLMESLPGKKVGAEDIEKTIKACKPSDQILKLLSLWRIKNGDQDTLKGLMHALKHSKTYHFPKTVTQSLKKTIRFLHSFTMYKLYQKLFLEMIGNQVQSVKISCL
The series is described as above. The note with it: antibody 200, 40 and 8 ng/mL; 1 hour, 37° C. On the procedure:
as §1, §2

The target of series [5] is T3, DcR2-His (recombinant human TRAIL R4/TNFRSF10D) (Homo sapiens, UniProt Q9UBN6).
T3 construct: His; purchased Sino Biological
T3 sequence (Q9UBN6 56-386): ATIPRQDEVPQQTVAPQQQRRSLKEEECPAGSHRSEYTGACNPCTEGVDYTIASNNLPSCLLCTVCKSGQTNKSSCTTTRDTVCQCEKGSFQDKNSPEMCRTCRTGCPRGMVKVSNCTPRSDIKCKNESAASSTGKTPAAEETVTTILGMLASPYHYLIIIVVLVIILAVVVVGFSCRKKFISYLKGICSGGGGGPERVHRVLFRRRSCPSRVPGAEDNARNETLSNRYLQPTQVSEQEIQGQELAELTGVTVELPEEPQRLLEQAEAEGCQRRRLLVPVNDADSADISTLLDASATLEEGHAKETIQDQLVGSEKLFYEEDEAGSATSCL
The description is as above. Particulars: antibody 200, 40 and 8 ng/mL; 1 hour, 37° C. On the procedure:
as §1, §2

Series [6] relates to HT1080. Nature of the series: In vitro cytotoxic sensitivity of CTB006. Type of series: cell-based, human. The note with it: HT1080, Fibrosarcoma.
Series [7] has as its system Capan-1. In words: In vitro cytotoxic sensitivity of CTB006. Format: cell-based, human. The note with it: Capan-1, Pancreatic cancer.
In series [8] the test system is SKOV3. In words: In vitro cytotoxic sensitivity of CTB006. Format: cell-based, human. Particulars: SKOV3, Ovarian cancer.

Results on one substance are retold here after patent US20180125993A1 (BEIJING COTIMES BIOTECH COMPANY LIMITED, priority 2014, published 2018).

For the substance “HuCTB006: Monospecific humanized chimeric monoclonal antibody directed to TRAIL-R2 receptor; heavy chain SEQ ID NO: 14, light chain SEQ ID NO: 12”, in series [1], the “T/C % (Calculated using tumor volumes)” value is 89.71%. The “TGI (Calculated using tumor volumes)” value in series [1] and in series [1] (10 mg/kg) was 9.42% in each case. Moreover, the “TGI (Calculated using tumor weight)” value in series [1] and in series [1] (10 mg/kg) was 16.11% each time. In addition, in series [1], the “Time of tumor volume changed significantly” value worked out at 13. For the same substance, the “Tumor Volume Mean ± SEM” value in series [1] is given as 0.96 ± 0.22 cm^3. Besides, the “Tumor weight Mean ± SEM” value in series [1] is on record as 0.67 ± 0.16 g. In addition, the “In vitro cytotoxic sensitivity of CTB006” value in series [2], in series [6], in series [7] and in series [8] was “Non-responder” throughout. Moreover, the “cross-reaction with coated antigen” value in series [3], in series [4] and in series [5] was “no cross-reaction” in each case.
